Results reported in ChEMBL document CHEMBL1125004, “Chemistry and pharmacology of the non-benzodiazepine anxiolytic enciprazine and related compounds” (1990).

What was measured:
[1] = tested on: Mus musculus; assay: Antiaggressive anxiolytic activity in the electroshock-induced fighting test in mice (po); Range (1 7.3-25.4); format: functional
[2] = tested on: Mus musculus; assay: Effect on hexobarbital induced sleep was determined in hexobarbital potentiation test (po); Range (76.3-106.2); format: functional
[3] = tested on: Mus musculus; assay: Antiaggressive anxiolytic activity in the electroshock-induced fighting test in mice (po); Range (7.3-11.9); format: functional
[4] = species on record: Mus musculus; assay: Ataxic activity in mice by rotarod test; Range (355.1-460.2); format: functional
[5] = Ratio of ED50 (hexobarbital) to that of ED50 (fighting); format: functional
[6] = Ratio of ED50 (rotarod) to that of ED50 (fighting); format: functional
[7] = tested on: Mus musculus; assay: Antiaggressive anxiolytic activity in the electroshock-induced fighting test in mice (po); Range (1.19-5.72); format: functional
[8] = tested on: Monkey; assay: Tested for ability to maintain self-administration after administration of 0.3 mg/kg in monkey 3038 (53.9+/-9.3); format: functional, Cercopithecidae
[9] = tested on: Monkey; assay: Tested for ability to maintain self-administration after administration of 0.3 mg/kg in monkey 9079 (56.5+/-18.0); format: functional, Cercopithecidae
[10] = tested on: Monkey; assay: Tested for ability to maintain self-administration after administration of 0.3 mg/kg in monkey 2037 (60.1+/-5.3); format: functional, Cercopithecidae
[11] = tested on: Monkey; assay: Tested for ability to maintain self-administration after administration of 0.3 mg/kg in monkey 3017 (76.6+/-15.9); format: functional, Cercopithecidae
[12] = tested on: Monkey; assay: Tested for ability to maintain self-administration after administration of 0.1 mg/kg in monkey 9083 (59.8+/-15.8); format: functional, Cercopithecidae
[13] = tested on: Monkey; assay: Tested for ability to maintain self-administration after administration of 0.3 mg/kg in monkey 2036 (44.9 +/-5.6); format: functional, Cercopithecidae
[14] = tested on: Mus musculus; assay: Antiaggressive anxiolytic activity in the electroshock-induced fighting test in mice (po); Range (13.27-18.96); format: functional
[15] = tested on: Mus musculus; assay: Antiaggressive anxiolytic activity in the electroshock-induced fighting test in mice (po); Range (11.7-20.3); format: functional
[16] = species on record: Mus musculus; assay: Effect on hexobarbital induced sleep was determined in hexobarbital potentiation test; Range (181.4-219.9); format: functional
[17] = tested on: Mus musculus; assay: Antiaggressive anxiolytic activity in the electroshock-induced fighting test in mice (po); Range (1.46-5.72); format: functional
[18] = species on record: Mus musculus; assay: Ataxic activity in mice by rotarod test; Range (87.7-114.6); format: functional
[19] = tested on: Rattus norvegicus; assay: Antiaggressive anxiolytic activity in the hexagonal maze test in rat after po administration of 2.6 mg/kg; format: functional
[20] = tested on: Mus musculus; assay: Antiaggressive anxiolytic activity in the electroshock-induced fighting test in mice (po); Range (9.4-17.88); format: functional
[21] = species on record: Mus musculus; assay: Effect on hexobarbital induced sleep was determined in hexobarbital potentiation test; Range (1 19.4-168.3); format: functional
[22] = tested on: Mus musculus; assay: Antiaggressive anxiolytic activity in the electroshock-induced fighting test in mice (po); Range (0.69-2.88); format: functional
[23] = species on record: Mus musculus; assay: Ataxic activity in mice by rotarod test; Range (231.4-298.5); format: functional
[24] = tested on: Mus musculus; assay: Antiaggressive anxiolytic activity in the electroshock-induced fighting test in mice (po); Range (3.1-7.7); format: functional
[25] = tested on: Mus musculus; assay: Antiaggressive anxiolytic activity in the electroshock-induced fighting test in mice (po); Range (8.3-16.1); format: functional
[26] = species on record: Mus musculus; assay: Effect on hexobarbital induced sleep was determined in hexobarbital potentiation test; Range (8.3-15.4); format: functional
[27] = tested on: Mus musculus; assay: Antiaggressive anxiolytic activity in the electroshock-induced fighting test in mice (po); Range (6.62-10.07); format: functional
[28] = species on record: Mus musculus; assay: Ataxic activity in mice by rotarod test; Range (1.1-5.3); format: functional

Question: Which ED50 [1] does the source give for `COc1cc(OCC(O)CN2CCN(c3ccccc3C(F)(F)F)CC2)cc(OC)c1OC.Cl` (centres undefined) here?
Answer: 21 mg/kg

Question: With `COc1cc(OCC(O)CN2CCN(c3cccc(C(F)(F)F)c3)CC2)cc(OC)c1OC.Cl` (centres undefined) as the molecule, how does the ED50 [2] read?
Answer: 90 mg/kg

Question: What about the ED50 [3] of the same molecule?
Answer: 9 mg/kg

Question: What about the ED50 [4] of the same molecule?
Answer: 400 mg/kg

Question: What about the Therapeutic index [5] of the same molecule?
Answer: 10

Question: What about the Therapeutic index [6] of the same molecule?
Answer: 44

Question: Which ED50 [7] does the source give for `COc1cc(OCC(O)CN2CCN(c3ccccc3OC(C)=O)CC2)cc(OC)c1OC.Cl` (centres undefined) here?
Answer: 3.3 mg/kg

Question: For `CCCC(C)C1(CC)C(=O)NC(=O)NC1=O` (centres undefined) [PENTOBARBITAL], which Effect [8] is on record?
Answer: 53.9

Question: And the Effect [9]?
Answer: 56.5

Question: What about the Effect [10] of the same molecule?
Answer: 60.1

Question: And the Effect [11]?
Answer: 76.6

Question: And the Effect [12]?
Answer: 59.8

Question: What about the Effect [13] of the same molecule?
Answer: 44.9

Question: For `COc1ccccc1N1CCN(CC(COc2cc(OC)c(OC)c(OC)c2)OC(=O)c2cc(OC)c(OC)c(OC)c2)CC1.Cl` (centres undefined), which ED50 [14] is on record?
Answer: 16 mg/kg

Question: Which ED50 [15] does the source give for `COc1cc(OCC(O)CN2CCN(c3ccccc3Cl)CC2)cc(OC)c1OC.Cl` (centres undefined) here?
Answer: 16 mg/kg

Question: What does the source list for `COc1cc(OCC(O)CN2CCN(c3ccccc3NC(C)=O)CC2)cc(OC)c1OC` (centres undefined)?
Answer: ED50 [16]: 200 mg/kg; ED50 [17]: 3.3 mg/kg; ED50 [18]: 100 mg/kg; Prolongation [19]: 50%; Therapeutic index [5]: 61; Therapeutic index [6]: 30

Question: For `COc1ccccc1N1CCN(CC(COc2cc(OC)c(OC)c(OC)c2)OC(=O)c2cccnc2)CC1.Cl` (centres undefined), which ED50 [20] is on record?
Answer: 14 mg/kg

Question: What does the source list for `COc1cc(OCC(O)CN2CCN(c3ccccc3N)CC2)cc(OC)c1OC.Cl` (centres undefined)?
Answer: ED50 [21]: 145 mg/kg; ED50 [22]: 1.4 mg/kg; ED50 [23]: 260 mg/kg; Therapeutic index [5]: 103; Therapeutic index [6]: 185

Question: With `COc1cccc(N2CCN(CC(O)COc3cc(OC)c(OC)c(OC)c3)CC2)c1.Cl` (centres undefined) as the molecule, how does the ED50 [24] read?
Answer: 5.5 mg/kg

Question: For `COc1cc(OCC(O)CN2CCN(c3cccc(C)c3)CC2)cc(OC)c1OC.Cl` (centres undefined), which ED50 [25] is on record?
Answer: 12 mg/kg

Question: Which ED50 [26] does the source give for `O=C1CN=C(c2ccccc2)c2cc(Cl)ccc2N1CC1CC1` [PRAZEPAM] here?
Answer: 11.5 mg/kg

Question: And the ED50 [27]?
Answer: 8 mg/kg

Question: What about the ED50 [28] of the same molecule?
Answer: 3.1 mg/kg

Question: And the Therapeutic index [5]?
Answer: 1.4

Question: What about the Therapeutic index [6] of the same molecule?
Answer: 0.4
